Measured values: patent publication US8927500B2, “Peptidomimetic macrocycles” (Aileron Therapeutics, Inc., priority 2012, dated 2015)
Like-named read-outs stand apart in the source and are kept apart here. Where a SMILES comes first, the peptide text is derived from it. Bridges are numbered along the chain shown (N, C = ends). [ ]: non-standard residue; d: D form. dPhe(4-CF3) = N[C@H](Cc1ccc(C(F)(F)F)cc1)C(=O)O; Phe(3,4-F2) = N[C@@H](Cc1ccc(F)c(F)c1)C(=O)O; R8 = C=CCCCCCC[C@@](C)(N)C(=O)O; Cba = N[C@@H](CC1CCC1)C(=O)O; R5 = C=CCCC[C@@](C)(N)C(=O)O; S5 = C=CCCC[C@](C)(N)C(=O)O; Nle = CCCC[C@H](N)C(=O)O

How the values were obtained:
MDMX = target: T1, MDMX (Homo sapiens, UniProt O15151); assay: Competitive fluorescence polarization assay for MDMX; format: binding; settings: competitive FP assay; for IC50: read-out: IC50 (MDMX)
T1 sequence (O15151 1-125): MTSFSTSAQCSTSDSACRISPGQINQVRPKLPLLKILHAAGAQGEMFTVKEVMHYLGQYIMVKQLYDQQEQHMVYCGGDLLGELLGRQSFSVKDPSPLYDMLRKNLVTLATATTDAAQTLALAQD

MDM2 = MDM2 (Homo sapiens, UniProt Q00987); assay: Competitive fluorescence polarization assay for MDM2; format: binding; settings: competitive FP assay, MDM2; for IC50: read-out: IC50 (MDM2)
Sequence of MDM2 (Q00987 1-125): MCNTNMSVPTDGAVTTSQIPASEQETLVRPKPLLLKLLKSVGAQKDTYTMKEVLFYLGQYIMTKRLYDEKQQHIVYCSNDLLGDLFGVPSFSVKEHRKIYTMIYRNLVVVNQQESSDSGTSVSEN

Row | Structure (SMILES) | IC50 (MDMX) [nM] | Ki (MDMX; read-out: Ki (MDMX)) [nM] | IC50 (MDM2) [nM] | Ki (MDM2; read-out: Ki (MDM2)) [nM] | Ki (MDMX; Ki (MDMX)) [nM] | Ki (MDM2; Ki (MDM2)) [nM]
1 | CC(=O)N[C@@H](CC(C)C)C(=O)N[C@H](C(=O)N[C@@H](Cc1ccccc1)C(=O)N[C@]1(C)CCCCCCC=CCCC[C@@](C)(C(=O)N[C@@H](C)C(=O)N[C@@H](C)C(=O)N[C@@H](CC(C)C)C(=O)N[C@H](C)C(N)=O)NC(=O)[C@H](CC(C)C)NC(=O)[C@H](CCC(N)=O)NC(=O)[C@H](C)NC(=O)[C@H](Cc2c[nH]c3ccccc23)NC(=O)[C@H](Cc2c[nH]cn2)NC(=O)[C@H](CCC(=O)O)NC1=O)[C@@H](C)O (single isomer, unassigned) [compound 227] | 100 to 1000 | 10 to 100 | < 10 | < 10 | – | –
2 | CC(=O)N[C@@H](CC(C)C)C(=O)N[C@H](C(=O)N[C@@H](Cc1ccccc1)C(=O)N[C@]1(C)CCCCCCC=CCCC[C@@](C)(C(=O)N[C@@H](CO)C(=O)N[C@@H](C)C(=O)N[C@@H](C)C(N)=O)NC(=O)[C@H](CC2CCC2)NC(=O)[C@H](CCC(N)=O)NC(=O)[C@H](C)NC(=O)[C@H](Cc2c[nH]c3ccccc23)NC(=O)[C@H](Cc2ccc(C(=O)O)cc2)NC(=O)[C@H](CCC(=O)O)NC1=O)[C@@H](C)O (single isomer, unassigned) [compound 291] | 10 to 100 | < 10 | 10 to 100 | < 10 | – | –
3 | CCCC[C@H](NC(=O)[C@@H](C)NC(=O)[C@H](C)NC(=O)[C@]1(C)CCCC=CCCCCCC[C@@](C)(NC(=O)[C@H](Cc2ccccc2)NC(=O)[C@@H](NC(=O)[C@H](CC(C)C)NC(C)=O)[C@@H](C)O)C(=O)N[C@@H](C)C(=O)N[C@@H](Cc2ccc(O)cc2)C(=O)N[C@@H](Cc2c[nH]c3ccccc23)C(=O)N[C@@H](C)C(=O)N[C@@H](CCC(N)=O)C(=O)N[C@@H](CC(C)C)C(=O)N1)C(=O)N[C@@H](C)C(N)=O (single isomer, unassigned) [compound 394] | 10 to 100 | < 10 | < 10 | < 10 | – | –
4 | CC(=O)N[C@@H](CC(C)C)C(=O)N[C@H](C(=O)N[C@@H](Cc1ccccc1)C(=O)N[C@]1(C)CCCCCCC=CCCC[C@@](C)(C(=O)N[C@@H](C)C(=O)N[C@@H](C)C(=O)N[C@@H](C)C(=O)N[C@@H](C)C(=O)N[C@@H](C)C(=O)N[C@H](C)C(=O)O)NC(=O)[C@H](CC(C)C)NC(=O)[C@H](CCC(N)=O)NC(=O)[C@H](C)NC(=O)[C@H](Cc2c[nH]c3ccccc23)NC(=O)[C@H](Cc2ccc(O)cc2)NC(=O)[C@H](CCC(=O)O)NC1=O)[C@@H](C)O (single isomer, unassigned) [compound 551] | – | – | – | – | 10 to 100 | < 10
5 | CC[C@H](C)[C@H](NC(=O)[C@H](C)NC(=O)[C@H](C)NC(=O)[C@]1(C)CCCC=CCCCCCC[C@@](C)(NC(=O)[C@H](Cc2ccc(F)c(F)c2)NC(=O)[C@@H](NC(=O)[C@H](CC(C)C)NC(C)=O)[C@@H](C)O)C(=O)N[C@@H](CCC(=O)O)C(=O)N[C@@H](Cc2ccc(O)cc2)C(=O)N[C@@H](Cc2c[nH]c3ccccc23)C(=O)N[C@@H](C)C(=O)N[C@@H](CCC(N)=O)C(=O)N[C@@H](CC2CCC2)C(=O)N1)C(=O)N[C@H](C)C(N)=O [compound 248] (Ac-LT[Phe(3,4-F2)][R8]EYWAQ[Cba][S5]AAI[dA]-NH2; staple 4-11) | 10 to 100 | 10 to 100 | 10 to 100 | < 10 | – | –
6 | CCCC[C@H](NC(=O)[C@H](C)NC(=O)[C@H](C)NC(=O)[C@]1(C)CCCC=CCCCCCC[C@@](C)(NC(=O)[C@H](Cc2ccccc2)NC(=O)[C@H](C)NC(=O)[C@H](CC(C)C)NC(C)=O)C(=O)N[C@@H](CCC(=O)O)C(=O)N[C@@H](Cc2ccc(O)cc2)C(=O)N[C@@H](Cc2c[nH]c3ccccc23)C(=O)N[C@@H](C)C(=O)N[C@@H](CCC(N)=O)C(=O)N[C@@H](CC(C)C)C(=O)N1)C(=O)N[C@@H](C)C(N)=O [compound 369] (Ac-LAF[R8]EYWAQL[S5]AA[Nle]A-NH2; staple 4-11) | 100 to 1000 | 10 to 100 | 100 to 1000 | 10 to 100 | – | –
7 | CC[C@H](C)[C@H](NC(=O)[C@H](Cc1c[nH]cn1)NC(=O)[C@H](C)NC(=O)[C@]1(C)CCCC=CCCCCCC[C@@](C)(NC(=O)[C@H](Cc2ccccc2)NC(=O)[C@@H](NC(=O)[C@H](CC(C)C)NC(C)=O)[C@@H](C)O)C(=O)N[C@@H](C)C(=O)N[C@@H](Cc2c[nH]cn2)C(=O)N[C@@H](Cc2c[nH]c3ccccc23)C(=O)N[C@@H](C)C(=O)N[C@@H](CCC(N)=O)C(=O)N[C@@H](CC(C)C)C(=O)N1)C(=O)N[C@H](C)C(N)=O [compound 207] (Ac-LTF[R8]AHWAQL[S5]AHI[dA]-NH2; staple 4-11) | 100 to 1000 | 10 to 100 | < 10 | < 10 | – | –
8 | CC(=O)N[C@@H](CC(C)C)C(=O)N[C@H](C(=O)N[C@@H](Cc1ccccc1)C(=O)N[C@]1(C)CCCCCCC=CCCC[C@@](C)(C(=O)N[C@@H](C)C(=O)N[C@@H](C)C(=O)N[C@H](C)C(N)=O)NC(=O)[C@H](CC(C)C)NC(=O)[C@H](CCC(N)=O)NC(=O)[C@H](C)NC(=O)[C@H](Cc2c[nH]c3ccccc23)NC(=O)[C@H](Cc2ccc(O)cc2)NC(=O)[C@H](CCC(=O)O)NC1=O)[C@@H](C)O [compound 587] (Ac-LTF[R8]EYWAQL[S5]AA[dA]-NH2; staple 4-11) | – | < 10 | – | < 10 | – | –
9 | CC(=O)N[C@@H](CC(C)C)C(=O)N[C@H](C(=O)N[C@@H](Cc1ccccc1)C(=O)N[C@]1(C)CCCCCCC=CCCC[C@@](C)(C(=O)N[C@@H](CO)C(=O)N[C@@H](C)C(=O)N[C@@H](Cc2ccccc2)C(N)=O)NC(=O)[C@H](CC2CCC2)NC(=O)[C@H](CCC(N)=O)NC(=O)[C@H](Cc2c[nH]c3ccccc23)NC(=O)[C@H](Cc2c[nH]c3ccccc23)NC(=O)[C@H](Cc2ccc(O)cc2)NC(=O)[C@H](C)NC1=O)[C@@H](C)O [compound 263] (Ac-LTF[R8]AYWWQ[Cba][S5]SAF-NH2; staple 4-11) | 100 to 1000 | 10 to 100 | 10 to 100 | < 10 | – | –
10 | CC(=O)N[C@@H](C)C(=O)N[C@@H](CC(C)C)C(=O)N[C@H](C(=O)N[C@@H](Cc1ccccc1)C(=O)N[C@]1(C)CCCCCCC=CCCC[C@@](C)(C(=O)N[C@@H](CO)C(=O)N[C@@H](C)C(=O)N[C@@H](C)C(=O)N[C@@H](C)C(N)=O)NC(=O)[C@H](CC2CCC2)NC(=O)[C@H](CCC(N)=O)NC(=O)[C@H](C)NC(=O)[C@H](Cc2c[nH]c3ccccc23)NC(=O)[C@H](Cc2ccc(O)cc2)NC(=O)[C@H](CCC(=O)O)NC1=O)[C@@H](C)O [compound 329] | 10 to 100 | 10 to 100 | 10 to 100 | < 10 | – | –

The next lines start with results.

Row | IC50 (MDMX) [nM] | Ki (MDMX; read-out: Ki (MDMX)) [nM] | IC50 (MDM2) [nM] | Ki (MDM2; read-out: Ki (MDM2)) [nM] | Structure (SMILES) | Ki (MDMX; Ki (MDMX)) [nM] | Ki (MDM2; Ki (MDM2)) [nM]
11 | > 1000 | – | < 10 | – | CC(=O)N[C@@H](C(=O)N[C@H](C)C(=O)N[C@H](Cc1c[nH]c2ccccc12)C(=O)N[C@H](Cc1ccc(O)cc1)C(=O)N[C@H](C)C(=O)N[C@H](CC(N)=O)C(=O)N[C@H](Cc1ccc(C(F)(F)F)cc1)C(=O)N[C@H](CCC(=O)O)C(=O)N[C@]1(C)CCCC=CCCC[C@](C)(C(=O)N[C@H](C)C(N)=O)NC(=O)[C@@H](CCCNC(=N)N)NC(=O)[C@@H](CC(C)C)NC(=O)[C@@H](CC(C)C)NC1=O)[C@H](C)O [compound 755] (Ac-[dT][dA][dW][dY][dA][dN][dPhe(4-CF3)][dE][R5][dL][dL][dR][R5][dA]-NH2; staple 9-13) | – | –
12 | – | 10 to 100 | – | 10 to 100 | CC(=O)N[C@@H](CC(C)C)C(=O)N[C@H](C(=O)N[C@@H](Cc1ccccc1)C(=O)N[C@]1(C)CCCCCCC=CCCC[C@@](C)(C(=O)N[C@@H](CO)C(N)=O)NC(=O)[C@H](CC(C)C)NC(=O)[C@H](CCC(N)=O)NC(=O)[C@H](C)NC(=O)[C@H](Cc2c[nH]c3ccccc23)NC(=O)[C@H](C)NC(=O)[C@H](Cc2c[nH]cn2)NC1=O)[C@@H](C)O (single isomer, unassigned) [compound 710] | – | –
13 | 10 to 100 | 10 to 100 | 10 to 100 | < 10 | CCCC[C@H](NC(=O)[C@H](C)NC(=O)[C@H](C)NC(=O)[C@]1(C)CCCC=CCCCCCC[C@@](C)(NC(=O)[C@H](Cc2ccccc2)NC(=O)[C@@H](NC(=O)[C@H](CC(C)C)NC(C)=O)[C@@H](C)O)C(=O)N[C@@H](C)C(=O)N[C@@H](Cc2ccc(O)cc2)C(=O)N[C@@H](Cc2c[nH]c3ccccc23)C(=O)NC(C)(C)C(=O)N[C@@H](CCC(N)=O)C(=O)N[C@@H](CC(C)C)C(=O)N1)C(=O)N[C@@H](C)C(N)=O (single isomer, unassigned) [compound 390] | – | –
14 | 100 to 1000 | 10 to 100 | 10 to 100 | < 10 | CCCC[C@H](NC(=O)[C@H](Cc1c[nH]c2ccccc12)NC(=O)[C@H](C)NC(=O)[C@]1(C)CCCC=CCCCCCC[C@@](C)(NC(=O)[C@H](Cc2ccccc2)NC(=O)[C@@H](NC(=O)[C@H](CC(C)C)NC(C)=O)[C@@H](C)O)C(=O)N[C@@H](CCC(=O)O)C(=O)N[C@@H](Cc2ccc(O)cc2)C(=O)N[C@@H](Cc2c[nH]c3ccccc23)C(=O)N[C@@H](C)C(=O)N[C@@H](CCC(N)=O)C(=O)N[C@@H](CC2CCC2)C(=O)N1)C(=O)N[C@@H](C)C(N)=O [compound 241] (Ac-LTF[R8]EYWAQ[Cba][S5]AW[Nle]A-NH2; staple 4-11) | – | –
15 | 100 to 1000 | 10 to 100 | 10 to 100 | < 10 | CCCC[C@H](NC(=O)[C@H](C)NC(=O)[C@H](CO)NC(=O)[C@]1(C)CCCC=CCCCCCC[C@@](C)(NC(=O)[C@H](Cc2ccccc2)NC(=O)[C@@H](NC(=O)[C@H](CC(C)C)NC(C)=O)[C@@H](C)O)C(=O)N[C@@H](CCC(=O)O)C(=O)N[C@@H](Cc2ccc(O)cc2)C(=O)N[C@@H](Cc2c[nH]c3ccccc23)C(=O)N[C@@H](Cc2c[nH]c3ccccc23)C(=O)N[C@@H](CCC(N)=O)C(=O)N[C@@H](CC2CCC2)C(=O)N1)C(=O)N[C@@H](C)C(N)=O [compound 246] (Ac-LTF[R8]EYWWQ[Cba][S5]SA[Nle]A-NH2; staple 4-11) | – | –
